Results reported in patent US20260250318A1, “COMPOSITIONS AND METHODS FOR CROSSING THE BLOOD BRAIN BARRIER” (VOYAGER THERAPEUTICS, INC., priority 2022, published 2026).

Experiments:
[1] = system: brains, heart, liver, muscle, and DRG of the NHPs; assay: Maturation of TTM-001 and TTM-002 capsids, NGS enrichment in NHP tissues; format: in vivo; conditions: relative to AAV9 control
Outline: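 Variants carry mutations within and flanking the loop IV peptide insert: positions 450–466 were triplet-randomized, while positions 449–466 received low-frequency point mutations. The combined pool went into two NHPs, and each peptide was scored by NGS enrichment ratio against AAV9.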

brain = assay: Matured TTM-001 and TTM-002 variants, NGS enrichment in mouse brain; format: in vivo, mice; conditions: relative to AAV9 control
[2] = NGS fold-enrichment of RNA, NHP brain
[3] = NGS fold-enrichment, DRG of NHPs
[4] = NGS fold-enrichment, NHP liver DNA
[5] = NGS fold-enrichment, NHP liver RNA
[6] = NGS fold-enrichment, NHP muscle
[7] = NGS fold-enrichment, RNA, brain of NHPs
[8] = NGS fold-enrichment, heart of NHPs
[9] = NGS fold-enrichment, liver DNA of NHPs
[10] = NGS fold-enrichment, liver RNA of NHPs
[11] = NGS fold-enrichment, muscle of NHPs
[12] = NGS fold-enrichment, brain of mice
[13] = NGS fold-enrichment, mouse brain
[14] = NGS fold-enrichment of matured AAV capsid variants, NHP brain, RNA

Sequence: KTETHSGSPHSKAQNQQT
- Fold Enrichment relative to AAV9, Brain (NHP) [1, 2]: 77.974 fold
- Fold Enrichment relative to AAV9, DRG (NHP) [1, 3]: 0.000 fold
- Fold Enrichment relative to AAV9, DRG (NHP) ([1]; NGS fold-enrichment, NHP DRG): 0.000 fold
- Fold Enrichment relative to AAV9, Heart (NHP) ([1]; NGS fold-enrichment, NHP heart): 0.067 fold
- Fold Enrichment relative to AAV9, Liver DNA (NHP) [1, 4]: 0.512 fold
- Fold Enrichment relative to AAV9, Liver RNA (NHP) [1, 5]: 0.000 fold
- Fold Enrichment relative to AAV9, Muscle (NHP) [1, 6]: 0.000 fold
- Fold Enrichment relative to AAV9, Brain (NHP) [1, 7]: 77.974 fold
- Fold Enrichment relative to AAV9, Heart (NHP) [1, 8]: 0.067 fold
- Fold Enrichment relative to AAV9, Liver DNA (NHP) [1, 9]: 0.512 fold
- Fold Enrichment relative to AAV9, Liver RNA (NHP) [1, 10]: 0.000 fold
- Fold Enrichment relative to AAV9, Muscle (NHP) [1, 11]: 0.000 fold
- Fold Enrichment relative to AAV9, Brain (Mouse) (brain; [12]): 57.287 fold
- Fold Enrichment relative to AAV9, Brain (Mouse) (brain; [13]): 57.287 fold

Sequence: KTVPTSGSPHSKAQNQQT
- Fold Enrichment relative to AAV9, Brain (NHP) [1, 14]: 51.348 fold
- Fold Enrichment relative to AAV9, DRG (NHP) ([1]; NHP DRG): 0.013 fold
- Fold Enrichment relative to AAV9, Heart (NHP) ([1]; NHP heart): 0.000 fold
- Fold Enrichment relative to AAV9, Liver DNA (NHP) ([1]; NHP liver, DNA): 0.338 fold
- Fold Enrichment relative to AAV9, Liver RNA (NHP) ([1]; NHP liver, RNA): 1.017 fold
- Fold Enrichment relative to AAV9, Muscle (NHP) ([1]; NHP muscle): 0.000 fold
- Fold Enrichment relative to AAV9, Brain (Mouse) (brain; mouse brain): 102.651 fold

Sequence: KTINGSGSPHSKAQRMST
- Fold Enrichment relative to AAV9, Brain (NHP) [1, 14]: 58.435 fold
- Fold Enrichment relative to AAV9, DRG (NHP) ([1]; NHP DRG): 0.192 fold
- Fold Enrichment relative to AAV9, Heart (NHP) ([1]; NHP heart): 0.037 fold
- Fold Enrichment relative to AAV9, Liver DNA (NHP) ([1]; NHP liver, DNA): 0.882 fold
- Fold Enrichment relative to AAV9, Liver RNA (NHP) ([1]; NHP liver, RNA): 1.707 fold
- Fold Enrichment relative to AAV9, Muscle (NHP) ([1]; NHP muscle): 0.000 fold
- Fold Enrichment relative to AAV9, Brain (Mouse) (brain; mouse brain): 53.414 fold

Sequence: KAINGSGSPHSKAQNLAT
- Fold Enrichment relative to AAV9, Brain (NHP) [1, 2]: 101.954 fold
- Fold Enrichment relative to AAV9, DRG (NHP) [1, 3]: 0.000 fold
- Fold Enrichment relative to AAV9, DRG (NHP) ([1]; NGS fold-enrichment, NHP DRG): 0.000 fold
- Fold Enrichment relative to AAV9, Heart (NHP) ([1]; NGS fold-enrichment, NHP heart): 10.954 fold
- Fold Enrichment relative to AAV9, Liver DNA (NHP) [1, 4]: 0.239 fold
- Fold Enrichment relative to AAV9, Liver RNA (NHP) [1, 5]: 0.298 fold
- Fold Enrichment relative to AAV9, Muscle (NHP) [1, 6]: 8.655 fold
- Fold Enrichment relative to AAV9, Brain (NHP) [1, 7]: 101.954 fold
- Fold Enrichment relative to AAV9, Heart (NHP) [1, 8]: 10.954 fold
- Fold Enrichment relative to AAV9, Liver DNA (NHP) [1, 9]: 0.239 fold
- Fold Enrichment relative to AAV9, Liver RNA (NHP) [1, 10]: 0.298 fold
- Fold Enrichment relative to AAV9, Muscle (NHP) [1, 11]: 8.655 fold
- Fold Enrichment relative to AAV9, Brain (Mouse) (brain; [12]): 116.685 fold
- Fold Enrichment relative to AAV9, Brain (Mouse) (brain; [13]): 116.685 fold

Sequence: KTDVGSGSPHSKAQNQQT
- Fold Enrichment relative to AAV9, Brain (NHP) [1, 14]: 51.849 fold
- Fold Enrichment relative to AAV9, DRG (NHP) ([1]; NHP DRG): 0.000 fold
- Fold Enrichment relative to AAV9, Heart (NHP) ([1]; NHP heart): 0.007 fold
- Fold Enrichment relative to AAV9, Liver DNA (NHP) ([1]; NHP liver, DNA): 0.560 fold
- Fold Enrichment relative to AAV9, Liver RNA (NHP) ([1]; NHP liver, RNA): 0.385 fold
- Fold Enrichment relative to AAV9, Muscle (NHP) ([1]; NHP muscle): 0.000 fold
- Fold Enrichment relative to AAV9, Brain (Mouse) (brain; mouse brain): 115.774 fold
